# According to US11512053B2, “Arginine methyltransferase inhibitors and uses thereof” (priority 2013, dated 2022):
# Counter-ions that a name gives are not always drawn. Like-named read-outs stand apart in the source and are kept apart here.
# Target: full-length human PRMT8 isoform 1 (Homo sapiens, UniProt Q9NR22)
# Experiment: PRMT8 Biochemical Assay (3H-SAM Flashplate, peptide substrate)
# Procedure, shortened: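 Scintillation Flashplate capture of biotinylated histone H4 (31-45) peptide (150 nM) methylated by 1.5 nM PRMT8 using 3H-SAM (50 nM) with unlabelled SAM (550 nM); enzyme and compound preincubated 30 min, room temperature, in Bicine pH 7.6 buffer with TCEP, BSG, Tween 20 and 2% DMSO. Stopped with excess cold SAM (400 uM); IC50 from % inhibition, min control 1 mM SAH.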
# [1] = read-out: Biochemical IC50 PRMT8
# [2] = single experiment or average of multiple experiments, read-out: Biochemical IC50 PRMT8
# [3] = Biochemical IC50 PRMT8, single experiment or average of multiple experiments
# full-length human PRMT8 isoform 1, sequence (Q9NR22 whole entry, canonical isoform): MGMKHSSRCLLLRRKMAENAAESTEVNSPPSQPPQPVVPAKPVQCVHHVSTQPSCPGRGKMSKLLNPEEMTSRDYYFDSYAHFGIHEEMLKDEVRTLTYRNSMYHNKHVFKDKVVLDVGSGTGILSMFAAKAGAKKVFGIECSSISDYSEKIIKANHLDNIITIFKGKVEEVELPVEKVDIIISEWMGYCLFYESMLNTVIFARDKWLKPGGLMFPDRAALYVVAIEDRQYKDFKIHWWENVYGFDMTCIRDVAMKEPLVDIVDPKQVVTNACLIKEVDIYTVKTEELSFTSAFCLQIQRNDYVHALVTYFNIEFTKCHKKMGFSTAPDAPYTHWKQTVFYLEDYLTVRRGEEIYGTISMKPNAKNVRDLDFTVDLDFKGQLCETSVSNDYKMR
Compound,IC50 [1] [nM],IC50 [2] [nM],IC50 (Biochemical IC50 PRMT8) [nM],IC50 [3] [nM]
CNCCN(C)Cc1c[nH]nc1C1CCC(C)(C)C(C(=O)NCC(C)C)C1 (stereo not drawn) [Compound 90],101 to 1000,117,,
CNCCN(C)Cc1c[nH]nc1C1CCC(C)(C)C(C(=O)NCCC(C)C)C1 (stereo not drawn) [Compound 91],< 100,29,,
CNCCN(C)Cc1c[nH]nc1C1CCC(C)(C)C(C(=O)NCc2ccccc2)C1 (stereo not drawn) [Compound 92],< 100,42.1,,
CNCCN(C)Cc1c[nH]nc1C1CCC(C)(C)C(C(=O)NCCCOC)C1 (stereo not drawn) [Compound 93],< 100,88.1,,
CNCCN(C)Cc1c[nH]nc1C1CCC(C)(C)C(COCC(C)C)C1 (stereo not drawn) [Compound 95],< 100,18.9,,
"CNCCN(C)Cc1c[nH]nc1[C@H]1CC[C@@]2(CC1)CC(C)(C)CO2 [Compound 133, Methyl[2-(methylamino)ethyl]([3-[(5s,8s)-3,3-dimethyl-1-oxaspiro[4.5]decan-8-yl]-1H-pyrazol-4-yl]methyl)amine]",,,< 100,9.1
"CNCCN(C)Cc1ccnn1C1CCC2(CC1)CC(C)(C)CO2 (stereo not drawn) [Compound 274, trifluoroacetate]",< 100,11.9,,
"CNCCN(C)Cc1ccnn1C1CCC2(CCCC2)CC1 [Compound 275, Methyl[2-(methylamino)ethyl][(1-[spiro[4.5]decan-8-yl]-1H-pyrazol-5-yl)methyl]amine trifluoroacetate]",< 100,10.4,,

# Further lines, results first:
IC50 [1] [nM],IC50 [2] [nM],IC50 (Biochemical IC50 PRMT8) [nM],IC50 [3] [nM],Compound
,,< 100,24.8,"CNCCN(C)Cc1c[nH]nc1[C@H]1CC[C@]2(CC1)CC(C)(C)CO2 [Compound 134, methyl[2-(methylamino)ethyl]([3-[(5r,8r)-3,3-dimethyl-1-oxaspiro[4.5]decan-8-yl]-1H-pyrazol-4-yl]methyl)amine]"
101 to 1000,210,,,CNCCN(C)Cc1c[nH]nc1[C@H]1CCC(C)(C)[C@@H](C(=O)NCCOC)C1 [Compound 268]
101 to 1000,155,,,CNCCN(C)Cc1c[nH]nc1[C@@H]1CCC(C)(C)[C@@H](C(=O)NCCOC)C1 [Compound 269]
101 to 1000,204,,,CNCCN(C)Cc1c[nH]nc1[C@H]1CCC(C)(C)[C@@H](C(=O)NCCCOC)C1 [Compound 270]
< 100,100,,,"CNCCN(C)Cc1c[nH]nc1[C@@H]1CCC(C)(C)[C@@H](C(=O)NCCCOC)C1 [Compound 271, (1S,5R)—N-(3-methoxypropyl)-2,2-dimethyl-5-[4-({methyl[2-(methylamino)ethyl]amino}methyl)-1H-pyrazol-3-yl]cyclohexane-1-carboxamide]"
< 100,25.8,,,CNCCN(C)Cc1c[nH]nc1C1CCC(C)(C)[C@H](OCCCOC)C1 (stereo partly drawn) [Compound 272]
< 100,22.6,,,"CNCCN(C)Cc1c[nH]nc1C1CCC(C)(C)[C@H](OCC2CCOCC2)C1 (stereo partly drawn) [Compound 273, ({3-[(3R)-4,4-dimethyl-3-(oxan-4-ylmethoxy)cyclohexyl]-1H-pyrazol-4-yl}methyl)(methyl)[2-(methylamino)ethyl]amine]"
